Organism: Rattus norvegicus
Test: Open TG-GATES - Regimen: Daily Repeat
Assay type: toxicity, organism-based, Sprague-Dawley
Parameters: regimen Daily Repeat, gender Male, age 6 weeks
Settings: in vivo, po, 300 mg/kg, route gavage, dose level High; for APTT / Bas / Eos / Fbg / Hb / Ht / Lym / MCH / MCHC / MCV / Mono / Neu / PT / Plat / RBC / Ret / WBC: tissue Blood
[1] = 72 h, tissue Kidney, time 3 day
[2] = 72 h, tissue Plasma, time 3 day

## C[C@]12CCC(=O)C=C1CC[C@@H]1[C@@H]2CC[C@@]2(C)[C@H]1CC[C@]2(C)O [METHYLTESTOSTERONE]
72 h, time 3 day
  TERMINAL_BW: 233.2 g
  APTT: 15.7 s
  Bas: 0%
  Eos: 1%
  Fbg: 295.4 mg/dL
  Hb: 13.8 g/dL
  Ht: 39.9%
  Lym: 74.8%
  MCH: 21.8 pg
  MCHC: 34.6%
  MCV: 63.2 fL
  Mono: 2.8%
  Neu: 21%
  PT: 13.4 s
  Plat: 115.4 x10_4/uL
  RBC: 630.6 x10_4/ul
  Ret: 6.1%
  WBC: 71.4 x10_2/uL
[1]
  KIDNEY_L: 1.1 g
  KIDNEY_R: 1.1 g
  KIDNEY_TOTAL: 2.2 g
72 h, tissue Liver, time 3 day
  LIVER: 12.3 g
[2]
  A/G: 0.9
  ALP: 1988.4 IU/L
  ALT: 52.4 IU/L
  AST: 72 IU/L
  BUN: 14.4 mg/dL
  CRE: 0.2 mg/dL
  Ca: 11 mg/dL
  Cl: 106.2 meq/L
  DBIL: 0.028 mg/dL
  GLC: 179 mg/dL
  IP: 8.4 mg/dL
  K: 4.2 meq/L
  LDH: 129.6 IU/L
  Na: 143.2 meq/L
  PL: 110.4 mg/dL
  RALB: 2.8 g/dL
  TBIL: 0.024 mg/dL
  TC: 37.8 mg/dL
  TG: 189 mg/dL
  TP: 5.8 g/dL
  gamma-GTP: 1.2 IU/L
[…], time 7 day
  TERMINAL_BW: 255 g
  APTT: 19.5 s
  Bas: 0%
  Eos: 0.2%
  Fbg: 345.8 mg/dL
  Hb: 14 g/dL
  Ht: 40.4%
  Lym: 80%
  MCH: 21.6 pg
  MCHC: 34.6%
  MCV: 62.2 fL
  Mono: 3.2%
  Neu: 15.4%
  PT: 13.3 s
  Plat: 121 x10_4/uL
  RBC: 650.2 x10_4/ul
  Ret: 5.3%
  WBC: 65.9 x10_2/uL
[…], time 14 day
  TERMINAL_BW: 299.6 g
  APTT: 22.8 s
  Bas: 0%
  Eos: 0%
  Fbg: 327.8 mg/dL
  Hb: 15.3 g/dL
  Ht: 43.7%
  Lym: 70.4%
  MCH: 20.5 pg
  MCHC: 34.9%
  MCV: 58.8 fL
  Mono: 3.4%
  Neu: 25.2%
  PT: 13.5 s
  Plat: 118.5 x10_4/uL
  RBC: 744.4 x10_4/ul
  Ret: 3.2%
  WBC: 93.6 x10_2/uL
[…], time 28 day
  TERMINAL_BW: 358.4 g
  APTT: 19.9 s
  Bas: 0%
  Eos: 1%
  Fbg: 325.4 mg/dL
  Hb: 15.8 g/dL
  Ht: 44.3%
